Measurements published in PubChem BioAssay AID179 (DTP/NCI, 2004).
Where “and” joins values, the source holds several entries; their conditions need not be identical. Equal values may be shown once. Calls of active or inactive are those of the source.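 Rule for the calls: active = compounds giving half or more protection of infected cells from virus-caused growth loss, again on retest; inactive = the rest.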 Where a SMILES comes first, the peptide text is derived from it. [ ]: non-standard residue; d: D form. The star is where a group is joined. ξ: configuration not given here. ξF = NC(Cc1ccccc1)C(=O)O; Cbz = O=C(OCc1ccccc1)*; Aib = CC(C)(N)C(=O)O

Tested on: CEM cells HIV-1 protection, formazan growth assay
Assay: NCI AIDS Antiviral Assay
Settings: for IC50: measured here: growth of uninfected CEM cells
Procedure, shortened: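 CEM (human) cells, HIV-1 infected vs uninfected, 5-point dosing, formazan growth read-out. Retest threshold 50% protection.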

Row | SMILES | EC50 | IC50 | outcome
1 | C1CN(/N=N/N2CCOCC2)CCO1 | > 200 µM | > 200 µM | 
2 | COc1cc2c[n+](C)c3c4cc(OC)c(OC(C)C)cc4ccc3c2cc1OC | > 295 µM | 13.5 µM | 
3 | COC(=O)c1cc(C(=O)OC)c(C/C(=N/NC(=O)C[N+](C)(C)C)C(=O)Nc2cccc(C(F)(F)F)c2)nc1C/C(=N/NC(=O)C[N+](C)(C)C)C(=O)Nc1cccc(C(F)(F)F)c1 | > 200 µM | 105 µM | 
4 | CCOC(=O)C(C/C(C)=C/c1ccccc1)C(=O)OCC | > 200 µM | 182 µM | 
5 | CNc1ccc(Cl)cc1S(=O)(=O)c1ccc(OC)cc1 | > 200 µM | 2.14 µM | 
6 | CCOC(=O)c1nc2c(OC)nn(O)cc-2c1Br | > 794 µM | > 794 µM | 
7 | CNC(=O)CN(CC(=O)NC)C(=O)NC | > 120 µM | > 120 µM | 
8 | COc1cc(-c2oc3ccccc3c(=O)c2O)cc(OC)c1OC | > 200 µM | 79.4 µM | 
9 | N=C(N)c1ccc(N=NNc2ccc(C(=N)N)cc2)cc1 (tested in a mixture with another compound) | > 151 µM | 39.8 µM | 
10 | Cc1cc(=O)oc2c3c(ccc12)OC(C)(C)[C@H](OC(=O)C12CCC(C)(C(=O)O1)C2(C)C)[C@@H]3OC(=O)C12CCC(C)(C(=O)O1)C2(C)C (some centres not stated) | 0.0759 µM | > 200 µM | 
11 | CCOC(=O)c1cccc([N+](=O)[O-])c1N | > 200 µM | > 200 µM | 
12 | CCOC(=O)CNC(=O)C(Cc1ccccc1)NC(=O)C(C)(C)NC(=O)OCc1ccccc1 (configuration not stated) (Cbz-[Aib]-[ξF]-Gly-OEt) | > 200 µM | 95.5 µM | 
13 | Cc1cc2c3c(c1)C(=O)CCN3CCC2=O |  |  | inactive
14 | O=C(O)CCC(NC(=O)c1ccc(Nc2nc3ccccc3nc2C(=O)O)cc1)C(=O)O (configuration not stated) | > 200 µM | > 200 µM | 
15 | NNC(=O)/C(=C/c1ccc(Cl)c(Cl)c1)NC(=O)c1ccccc1 | > 141 µM | > 141 µM | 
16 | O=C(NC(CO)CO)c1ccc2cc(C(=O)N3CC(CCl)c4ccc([N+](=O)[O-])cc43)[nH]c2c1 (configuration not stated) | > 200 µM | 53.7 µM | 
17 | CCOC(=O)c1ccc(CSc2ccccc2C(=O)O)cc1 | > 16.6 µM | > 16.6 µM | 
18 | O=C1c2ccccc2C(=O)c2c(O)c(NCCNCCO)cc(O)c21 |  |  | inactive
19 | CC(C)(C)C1=NC(=S)SC2=NC(=O)C3(NN21)c1ccccc1-c1ccccc13 | > 200 µM | 20 µM | 
20 | Cc1cc(NS(=O)(=O)c2ccc(Nc3c4ccccc4nc4c(C(=O)NCCO)cccc34)cc2)no1 | > 200 µM | 12.6 µM | 
21 | CCCNP(=S)(NCCC)NCCC | > 200 µM | > 200 µM | 
22 | COC(=O)N/N=C(\c1ccccc1)c1ccc(OC)cc1 | > 200 µM | 112 µM | 

Row | SMILES | EC50 | IC50 | outcome
23 | Nc1c(N=Nc2ccc([N+](=O)[O-])cc2)c(S(=O)(=O)O)cc2cc(S(=O)(=O)O)c(N=Nc3ccccc3)c(O)c12 | > 151 µM | > 151 µM | 
24 | COc1ccc(C(=O)C(C(=O)C(=O)Nc2nc3ccc(OC)cc3s2)c2ccc(OC)cc2)cc1 (configuration not stated) | > 38 µM | > 38 µM | 
25 | NC(=O)NNc1nc(-c2ccccc2)cs1 | > 200 µM | 87.1 µM | 
26 | CC(=O)OC/C=C/[C@H](O[Si](C)(C)C(C)(C)C)[C@@H](O)/C=C/COC(C)=O | > 200 µM | 162 µM | 
27 | NNC(=O)/C(=C/c1cccc([N+](=O)[O-])c1)NC(=O)c1ccccc1 | > 398 µM | > 398 µM | 
28 | O=C(Sc1ccccc1)C1OC12CCCCC2 (configuration not stated) | > 200 µM | 13.2 µM | 
29 | CCOCNC(=O)N(COCC)COCC | > 398 µM | > 398 µM | 
30 | NCCN1C(=O)c2ccccc2C1c1ccc(Cl)cc1 (configuration not stated) | > 200 µM | > 200 µM | 
31 | O=C(CCNC(=O)OCc1ccccc1)OCCCNC(=O)OCc1ccccc1 | > 200 µM | > 200 µM | 
32 | CC1(C)COC(c2ccccc2Cl)N1 (configuration not stated) |  |  | inactive
33 | N#Cc1c(C#N)c(-c2ccco2)n(-c2ccccc2)c1N | > 200 µM | > 200 µM | 
34 | CC1c2ccccc2NC(=O)N1N1CCOCC1 (configuration not stated) | > 200 µM | > 200 µM | 
35 | CCOC(=O)c1ccc(-c2cc(C)[nH]n2)[nH]1 | > 200 µM | 77.6 µM | 
36 | CCCCCCCCCCCCCCCCOP(=O)(O)OCCC=C(c1cc(Cl)c(O)c(C(=O)O)c1)c1cc(Cl)c(O)c(C(=O)O)c1 | > 145 µM | 93.3 µM | 
37 | CCCCN1C(=O)c2cccc3cccc(c23)C1=O | > 200 µM | 112 µM | 
38 | COC(=O)c1ccc(SSc2ccc(C(=O)OC)cc2[N+](=O)[O-])c([N+](=O)[O-])c1 |  |  | inactive
39 | Cc1ccc(Oc2nc(Cl)nc(Oc3ccc(C)cc3)n2)cc1 | > 200 µM | > 200 µM | 
40 | CCOC(=O)C(C(C)=O)C(c1ccc(N(C)C)cc1)C(C(C)=O)C(=O)OCC (configuration not stated) | > 200 µM | > 200 µM | 
41 | [N-]=[N+]=Nc1c(C=O)c(=O)n(-c2ccccc2)c2ccccc12 | > 200 µM | 21.9 µM | 
42 | O=C1C(S(=O)(=O)c2ccccc2)=C(CS(=O)(=O)c2ccccc2)[C@@H](OCc2ccccc2)[C@@H]1OCc1ccccc1 | > 20 µM | 9.55 µM | 
43 | NC(=O)c1[nH]cnc1/N=N/SCC(N)C(=O)O (configuration not stated) | > 200 µM | 0.794 µM | 
44 | COc1ccc(-c2c(C#N)c(N)n(C3OCC(O)C(O)C3O)c(=S)c2C#N)cc1 (configuration not stated) | > 200 µM | 117 µM | 

Row | SMILES | EC50 | IC50 | outcome
45 | COC(=O)c1cc(C(=CC(=O)N[C@H]2CC[C@]3(C)C4CC[C@]5(C)[C@@H](C(C)CCCC(C)C)CC[C@H]5C4CC[C@H]3C2)c2cc(Cl)c(OC)c(C(=O)OC)c2)cc(Cl)c1OC (some centres not stated) | > 100 µM | > 100 µM | 
46 | Nc1c(CCc2ccccn2)ccc2ccccc12 | > 200 µM | 166 µM | 
47 | CCN(CC)CCCOP(=O)(OCCCN(CC)CC)OCCCN(CC)CC | 20 µM | > 200 µM | 
48 | CC(C)C1CC=CCC12C(=O)NC(=O)NC2=O (configuration not stated) | > 1050 µM | 955 µM | 
49 | COc1ccc(C2C(=O)c3ccc(OC)cc3OC2c2ccccc2)cc1 (configuration not stated) | > 200 µM | 87.1 µM | 
50 | CCCCC1=C(C(=O)N2CCOCC2)C2(OCCO2)C1Cl (configuration not stated) | > 58.9 µM | 10 µM | 
51 | CC1(C)CCCCCCC2CC2CCCCCC(C)(C)C1=O (configuration not stated) | > 200 µM | 105 µM | 
52 | CCOC(=O)C(C(=O)c1ccccc1-c1ccccc1C(=O)O)=P(c1ccccc1)(c1ccccc1)c1ccccc1 | > 229 µM | 43.7 µM | 
53 | CCCCC[C@@H]1OC(=O)/C(=C2/CC[C@@H](CCCC)O2)C(=O)[C@@H]1O |  |  | inactive
54 | CC(=O)Nc1ccc(S(=O)(=O)c2nnc(NC(C)=O)s2)cc1 | > 741 µM | 331 µM | 
55 | CCOC(=O)C(NC(=O)CC)(Nc1ccccc1OC)C(F)(F)F (configuration not stated) | > 200 µM | > 200 µM | 
56 | CCn1c(SCC(=O)NNC(=S)Nc2ccc(C)cc2)nc2ccccc2c1=O | > 200 µM | 105 µM | 
57 | O=C1CCC(N2C(=O)C3CC=CCC3C2=O)C(=O)N1 (configuration not stated) | > 200 µM | > 200 µM | 
58 | CCOC(=O)c1cc2ccccc2cc(C(=O)OCC)c1=O | > 200 µM | 34.7 µM | 
59 | COc1cc2c(cc1O)C1(C(=O)c3ccc4c(c3[C@H]1O)OCO4)N(C)CC2 (some centres not stated) |  |  | inactive
60 | CC1CC/C(=C\c2ccc(F)cc2)C(=O)/C1=C/c1ccc(F)cc1 (configuration not stated) | > 19.5 µM | 9.33 µM | 
61 | NC(=O)C1c2ccccc2C=Cc2ccccc21 | > 200 µM | 155 µM | 
62 | CC(=O)c1ccccc1NS(=O)(=O)c1ccc2nc(C)n(NS(=O)(=O)c3ccccc3C(C)=O)c(=O)c2c1 | > 200 µM | > 200 µM | 
63 | NC(N)=NS(=O)(=O)c1ccc(NC(=O)c2cccc3cc4ccccc4nc23)cc1 | > 53.7 µM | 16.2 µM | 
64 | COc1cc(/C=C2\C(=O)N(c3ccc(Cl)cc3)C(c3ccccc3)S2(=O)=O)cc(OC)c1OC (configuration not stated) |  |  | inactive
65 | [O-][N+]1=NC(c2ccccc2)=C1c1ccccc1 | > 50.1 µM | > 50.1 µM | 
66 | NC1C(O)C(O)C(O)C(O)C1O (configuration not stated) | > 7240 µM | > 7240 µM | 

Row | SMILES | EC50 | IC50 | outcome
67 | COc1ccc([C@H]2Oc3cc(O)cc(O)c3C(=O)[C@@H]2[C@H]2C(=O)c3c(O)cc(OC)cc3O[C@@H]2c2ccc(OC)cc2)cc1 | > 200 µM | 110 µM | 
68 | CSc1n[n+](C)cc(N)c1N | > 200 µM | 28.8 µM | 
69 | CNS(=O)(=O)NN(C)S(=O)(=O)c1ccc(Br)cc1 | > 132 µM | > 132 µM | 
70 | CC(=O)N(CC1CCCN(C)C1)C1C2CC3CC(C2)CC1C3 (configuration not stated) | > 117 µM | 46.8 µM | 
71 | Brc1cnc2n[nH]nc2c1 | > 912 µM | 525 µM | 
72 | COC(=O)C1=C(C)N[C@@]2(C)[C@H](C(=O)OC)C[C@H]1C2(C(C)=O)C(C)=O | > 200 µM | > 200 µM | 
73 | Nc1nc2c(ncn2C2C=CC(COS(N)(=O)=O)C2)c(=O)[nH]1 (configuration not stated) | > 200 µM | > 200 µM | 
74 | COC1OC(COC(C)=O)C(OC(C)=O)C(OC(C)=O)C1NC(=O)N(CCCl)N=O (configuration not stated) | > 288 µM | 91.2 µM and > 209 µM | 
75 | O=c1ccn(C(CO)OC(CO)CCP(=O)(O)O)c(=O)[nH]1 (configuration not stated) | > 200 µM | > 200 µM | 
76 | Cc1cc(-c2ccccn2)oc(=O)c1NC(=O)c1ccccc1 | > 200 µM | 30.2 µM | 
77 | COc1ccc(/C=C/C(=O)c2sc(N)nc2C)cc1 | > 912 µM | 479 µM | 
78 | COc1cc(/C=C/c2ccc3ccccc3n2)cc(OC)c1OC | > 22.4 µM | 1.48 µM | 
79 | CC1=C(N2CC2)C(=O)c2nc3n(c2C1=O)CCC3O (configuration not stated) |  |  | inactive
80 | CCOC(=O)C(C)c1nc2ccc(C(F)(F)F)cc2[nH]c1=O (configuration not stated) | > 200 µM | 110 µM | 
81 | [N-]=[N+]=NC1CC(n2cc(Cc3cccc(OCc4ccccc4)c3)c(=O)[nH]c2=O)OC1CO (configuration not stated) |  |  | inactive
82 | COC(=O)/C(=N/O)C(C(=O)OC)C(=O)C(=O)Nc1c(Cl)cc(C)cc1S(=O)(=O)O (configuration not stated) | > 550 µM | > 550 µM | 
83 | COc1ccc(/C=C/CN(C)CCc2ccccc2)cc1OC |  |  | inactive
84 | O=[N+]([O-])C(=C/C1CCCCC1)/C(=C\C1CCCCC1)[N+](=O)[O-] | > 200 µM | 4.57 µM | 
85 | CN(C)CCCNC(CC#N)CCC#N (configuration not stated) | > 200 µM | > 200 µM | 
86 | Cc1ccc2c(c1C)CC1(Cc3c(ccc4c3CCC4)C1=O)C2=O (configuration not stated) | > 100 µM | > 100 µM | 
